Measurements as given in ChEMBL document CHEMBL3046388, “Antifungal and insecticidal activities of daphnodorins A, B and C” (1987).

What was measured:
Format in all cases: functional
Tetranychus urticae = experiment: Insecticidal activity against adult and eggs of Tetranychus urticae (two-spotted spider mite) assessed as mortality at 500 ppm sprayed onto organism at 25 to 27 degC measured after 5 days; conditions: 120 h
Nilaparvata lugens = experiment: Insecticidal activity against third-instar larvae of Nilaparvata lugens (brown planthopper) in compound treated Oriza sativa stem assessed as mortality at 500 ppm at 25 to 27 degC measured after 5 days by stem dip method; conditions: 120 h
Callosobruchus chinensis = experiment: Insecticidal activity against adult Callosobruchus chinensis in compound treated ingenmame leaves assessed as mortality at 500 ppm at 25 to 27 degC measured after 5 days; conditions: 120 h
Spodoptera litura = experiment: Insecticidal activity against third-instar larvae Spodoptera litura in compound treated cabbage leaves assessed as mortality at 500 ppm at 25 to 27 degC measured after 5 days by leaf dip method; conditions: foliar, 120 h
Pyricularia oryzae [1] = experiment: Antifungal activity against Magnaporthe oryzae inoculated in compound treated Oryza sativa leaves assessed as residual effect on leaves at 27 degC at 500 ppm by spraying method
Pyricularia oryzae [2] = experiment: Antifungal activity against Magnaporthe oryzae inoculated in compound treated Oryza sativa leaves assessed as protective value at 27 degC at 10 ppm by spraying method
Pyricularia oryzae [3] = experiment: Antifungal activity against Magnaporthe oryzae inoculated in compound treated Oryza sativa leaves assessed as protective value at 27 degC at 50 ppm by spraying method
Pyricularia oryzae [4] = experiment: Antifungal activity against Magnaporthe oryzae inoculated in compound treated Oryza sativa leaves assessed as protective value at 27 degC at 200 ppm by spraying method
Blumeria graminis = experiment: Antifungal activity against Blumeria graminis inoculated in compound treated Triticum aestivum leaves assessed as protective value at 27 degC at 500 ppm by spraying method
Pyricularia oryzae [5] = experiment: Antifungal activity against Magnaporthe oryzae inoculated in compound treated Oryza sativa leaves assessed as protective value at 27 degC at 500 ppm by spraying method
Puccinia recondita = experiment: Antifungal activity against Puccinia recondita inoculated in compound treated Triticum aestivum leaves assessed as protective value at 27 degC at 500 ppm by spraying method
Botrytis cinerea = experiment: Antifungal activity against Botryotinia fuckeliana inoculated in compound treated Pisum sativum var. arvense POIL. leaves assessed as protective value at 27 degC at 500 ppm by spraying method
Phytophthora infestans = experiment: Antifungal activity against Phytophthora infestans inoculated in compound treated Lycopersicon esculentum MILL, leaves assessed as protective value at 27 degC at 500 ppm by spraying method
Rhizoctonia solani = experiment: Antifungal activity against Rhizoctonia solani inoculated in compound treated Oryza sativa leaves assessed as protective value at 27 degC at 500 ppm by spraying method

SMILES	mortality at 500 ppm (Tetranychus urticae)	mortality at 500 ppm (Nilaparvata lugens)	mortality at 500 ppm (Callosobruchus chinensis)	mortality at 500 ppm (Spodoptera litura)	Activity (Pyricularia oryzae [1])	Activity (Pyricularia oryzae [2])	Activity (Pyricularia oryzae [3])	Activity (Pyricularia oryzae [4])	Activity (Blumeria graminis)	Activity (Pyricularia oryzae [5])	Activity (Puccinia recondita)	Activity (Botrytis cinerea)	Activity (Phytophthora infestans)	Activity (Rhizoctonia solani)
O=C(c1c(O)cc(O)cc1O)c1c(-c2ccc(O)cc2)oc2cc(O)c3c(c12)O[C@H](c1ccc(O)cc1)CC3 [DAPHNODORIN A]	30%	10%	0%	20%	48%	58%	83%	93%	0%	95%	0%	0%	0%	0%
O=C(c1c(O)cc(O)cc1O)c1c(-c2ccc(O)cc2)oc2cc(O)c3c(c12)O[C@H](c1ccc(O)cc1)[C@@H](O)C3 [DAPHNODORIN B]	45%	0%	30%	30%	–	–	–	–	0%	79%	0%	0%	0%	0%
O=C1c2c(O)cc(O)cc2O[C@]12c1c(cc(O)c3c1O[C@H](c1ccc(O)cc1)CC3)O[C@H]2c1ccc(O)cc1 [DAPHNODORIN C]	11%	0%	10%	10%	40%	40%	69%	89%	0%	90%	0%	0%	0%	0%
